Measured values: ChEMBL document CHEMBL1131286, “Design and synthesis of m1-selective muscarinic agonists: (R)-(-)-(Z)-1-Azabicyclo[2.2.1]heptan-3-one, O-(3-(3'-methoxyphenyl)-2-propynyl)oxime maleate (CI-1017), a functionally m1-selective muscarinic agonist” (J Med Chem, 1998)

Legend:
[1] = target: T1, Muscarinic acetylcholine receptor M1 (Homo sapiens, UniProt P11229); experiment: biochemical; assay type: cell-based, CHO
T1 sequence (P11229 whole entry): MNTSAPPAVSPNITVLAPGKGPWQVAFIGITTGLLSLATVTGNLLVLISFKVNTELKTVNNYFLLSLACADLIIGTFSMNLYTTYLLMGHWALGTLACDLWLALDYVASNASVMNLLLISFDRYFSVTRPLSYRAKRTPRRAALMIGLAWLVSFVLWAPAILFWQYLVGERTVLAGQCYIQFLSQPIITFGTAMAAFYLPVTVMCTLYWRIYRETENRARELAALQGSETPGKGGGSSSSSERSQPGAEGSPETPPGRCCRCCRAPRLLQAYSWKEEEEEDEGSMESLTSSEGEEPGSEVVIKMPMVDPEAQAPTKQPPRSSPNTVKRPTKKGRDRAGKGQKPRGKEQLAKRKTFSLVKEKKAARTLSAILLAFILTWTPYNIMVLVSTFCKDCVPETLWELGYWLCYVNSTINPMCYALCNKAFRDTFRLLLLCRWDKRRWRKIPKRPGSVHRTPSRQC
Description: Binding affinity of [3H]-QNB to CHO cells expressing human Muscarinic acetylcholine receptor M1

[2] = target: T2, Muscarinic acetylcholine receptor M2 (Homo sapiens, UniProt P08172); experiment: Binding affinity of [3H]QNB to CHO cells expressing human Muscarinic acetylcholine receptor M2; assay type: cell-based
T2 sequence (P08172 whole entry): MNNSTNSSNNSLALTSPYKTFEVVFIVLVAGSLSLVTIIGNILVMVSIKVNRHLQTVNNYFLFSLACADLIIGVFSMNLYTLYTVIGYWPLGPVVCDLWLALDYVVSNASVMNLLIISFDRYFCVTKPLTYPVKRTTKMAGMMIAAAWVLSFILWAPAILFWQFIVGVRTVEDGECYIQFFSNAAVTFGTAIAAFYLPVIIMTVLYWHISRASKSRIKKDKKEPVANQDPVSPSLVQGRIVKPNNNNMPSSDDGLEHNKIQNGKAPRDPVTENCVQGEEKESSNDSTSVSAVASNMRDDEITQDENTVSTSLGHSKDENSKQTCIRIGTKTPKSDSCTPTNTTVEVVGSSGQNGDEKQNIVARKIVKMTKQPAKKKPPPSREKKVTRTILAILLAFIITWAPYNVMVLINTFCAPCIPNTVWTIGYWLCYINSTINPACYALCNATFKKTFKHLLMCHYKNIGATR

[3] = target: T3, Muscarinic acetylcholine receptor M5 (Homo sapiens) (UniProt P08912); experiment: Inositol phosphate(PI) accumulation in CHO cells expressing Muscarinic acetylcholine receptor M5 as maximal response at 100 uM relative to carbachol; assay type: functional, cell-based
T3 sequence (whole entry): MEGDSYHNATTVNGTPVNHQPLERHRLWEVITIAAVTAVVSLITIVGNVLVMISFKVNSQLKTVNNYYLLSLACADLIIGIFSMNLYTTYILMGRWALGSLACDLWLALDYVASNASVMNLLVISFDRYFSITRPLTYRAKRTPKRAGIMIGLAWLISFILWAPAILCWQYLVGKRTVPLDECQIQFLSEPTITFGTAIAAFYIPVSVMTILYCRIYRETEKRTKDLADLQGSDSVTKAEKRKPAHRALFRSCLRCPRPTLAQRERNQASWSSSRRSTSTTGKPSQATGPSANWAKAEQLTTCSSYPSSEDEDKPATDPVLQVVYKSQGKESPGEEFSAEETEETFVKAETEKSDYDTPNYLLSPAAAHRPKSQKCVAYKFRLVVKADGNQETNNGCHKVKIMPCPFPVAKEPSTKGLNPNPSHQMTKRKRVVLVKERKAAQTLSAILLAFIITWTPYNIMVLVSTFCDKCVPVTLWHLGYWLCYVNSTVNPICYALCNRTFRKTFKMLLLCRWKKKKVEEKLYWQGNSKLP

[4] = target: T4, Muscarinic acetylcholine receptor M1 (Homo sapiens) (UniProt P11229); experiment: Stimulation of inositol phosphate(PI) accumulation in CHO cells expressing Muscarinic acetylcholine receptor M1 as maximal response at 100 uM relative to carbachol; assay type: functional, cell-based
T4 sequence (whole entry): T1 sequence (P11229 whole entry)

[5] = target: Muscarinic acetylcholine receptor (Rattus norvegicus) (UniProt P08482+P08483+P08485+P08911+P10980); experiment: Ratio of QNB binding to CMD binding was evaluated; assay type: protein assay
[6] = target: Muscarinic acetylcholine receptor M3 (Homo sapiens) (UniProt P20309); experiment: Inositol phosphate(PI) accumulation in CHO cells expressing Muscarinic acetylcholine receptor M3 as maximal response at 100 uM relative to carbachol; assay type: functional, cell-based
[7] = target: Muscarinic acetylcholine receptor; experiment: Muscarinic acetylcholine receptor binding assay was conducted using [3H]quinuclidinyl benzilate (QNB) to label antagonist sites in membrane preparations from rat neocortex
[8] = target: Muscarinic acetylcholine receptor; experiment: Muscarinic acetylcholine receptor binding assay was conducted using [3H]cis-methyldioxolane (CMD) to label agonist sites in membrane preparations from rat neocortex
[9] = target: T3, Muscarinic acetylcholine receptor M5 (Homo sapiens); experiment: Amplification of transfected NIH3T3 cells was measured in Muscarinic acetylcholine receptor M5 required to produce half maximal effect; assay type: functional, cell-based
[10] = target: T5, Muscarinic acetylcholine receptor M2 (Homo sapiens) (UniProt P08172); conditions: CHO
T5 sequence (whole entry): T2 sequence (P08172 whole entry)
Description: Binding affinity expressed in IC50 labelled by [3H]QNB in CHO cells expressing human Muscarinic acetylcholine receptor M2

[11] = target: T6, Muscarinic acetylcholine receptor M4 (Homo sapiens) (UniProt P08173); conditions: NIH3T3
T6 sequence (whole entry): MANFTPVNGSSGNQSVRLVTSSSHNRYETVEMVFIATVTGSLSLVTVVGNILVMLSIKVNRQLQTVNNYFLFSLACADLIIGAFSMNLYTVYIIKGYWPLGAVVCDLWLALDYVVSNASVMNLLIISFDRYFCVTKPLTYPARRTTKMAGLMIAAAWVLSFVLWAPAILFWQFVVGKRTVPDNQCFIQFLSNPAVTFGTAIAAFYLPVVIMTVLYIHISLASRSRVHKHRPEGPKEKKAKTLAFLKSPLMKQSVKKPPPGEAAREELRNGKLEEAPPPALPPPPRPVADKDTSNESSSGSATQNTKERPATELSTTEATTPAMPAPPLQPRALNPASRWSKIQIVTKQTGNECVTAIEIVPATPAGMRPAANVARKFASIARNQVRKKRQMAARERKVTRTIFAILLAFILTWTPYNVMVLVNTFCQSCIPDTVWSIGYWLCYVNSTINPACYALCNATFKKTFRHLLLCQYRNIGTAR
Description: Amplification of transfected NIH3T3 cells was measured in Muscarinic acetylcholine receptor M4

[12] = target: T6, Muscarinic acetylcholine receptor M4 (Homo sapiens); experiment: Reversal of forskolin-stimulated accumulation of […] in transfected CHO cells, against Muscarinic acetylcholine receptor M4; assay type: functional, cell-based; conditions: concentration not given here
[13] = target: T3, Muscarinic acetylcholine receptor M5 (Homo sapiens); experiment: Stimulations of inositol phosphate(PI) accumulation in transfected CHO cells in Muscarinic acetylcholine receptor M5 values are the maximal response obtained from the compound tested at 100 uM normalized to the effect of carbachol.; assay type: functional, cell-based
[14] = target: T3, Muscarinic acetylcholine receptor M5 (Homo sapiens); conditions: CHO; 100 uM
[15] = target: T3, Muscarinic acetylcholine receptor M5 (Homo sapiens); experiment: Stimulations of inositol phosphate(PI) ccumulation in transfected CHO cells in Muscarinic acetylcholine receptor M5 values are the maximal response obtained from the compound tested at 100 uM normalized to the effect of carbachol.; assay type: functional, cell-based

Muscarinic acetylcholine receptor M3 (Homo sapiens), sequence (P20309 whole entry, looked up): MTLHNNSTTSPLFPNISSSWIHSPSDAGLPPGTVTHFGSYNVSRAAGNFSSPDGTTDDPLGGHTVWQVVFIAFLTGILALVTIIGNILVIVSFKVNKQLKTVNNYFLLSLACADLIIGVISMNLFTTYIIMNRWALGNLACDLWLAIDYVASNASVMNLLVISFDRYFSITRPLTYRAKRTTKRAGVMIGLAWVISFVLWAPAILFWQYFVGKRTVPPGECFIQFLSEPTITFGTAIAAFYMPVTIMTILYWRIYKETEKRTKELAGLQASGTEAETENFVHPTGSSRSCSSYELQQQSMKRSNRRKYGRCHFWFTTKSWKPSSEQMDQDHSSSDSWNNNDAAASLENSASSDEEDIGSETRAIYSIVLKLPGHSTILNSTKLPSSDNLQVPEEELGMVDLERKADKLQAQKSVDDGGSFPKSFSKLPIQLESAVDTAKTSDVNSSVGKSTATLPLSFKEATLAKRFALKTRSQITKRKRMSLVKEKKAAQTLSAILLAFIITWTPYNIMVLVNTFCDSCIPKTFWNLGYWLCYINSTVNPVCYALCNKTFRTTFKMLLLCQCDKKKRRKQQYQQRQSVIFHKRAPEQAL

Row | Compound | IC50 [1] | IC50 [2] | CCh [3] | CCh [4] | Ratio [5] | CCh [6] | IC50 [7] | IC50 [8] | ED50 [9] | ED50 [10] | ED50 [11] | inhibition [12] | Stimulation [13] | ED50 [14] | CCh [15]
1 | Fc1ccccc1C#CCO/N=C1\CN2CCC1C2 (stereo not given) | 4.03 µM | 20.8 µM | 6% | 45% | 160 | 2% |  |  |  |  |  |  |  |  | 
2 | C=CCO/N=C1\CN2CCC1C2 (stereo not given) | 4.05 µM | 10.8 µM |  |  | 91.7 |  | 4.77 µM | 0.052 µM |  |  |  |  |  |  | 
3 | COc1ccccc1C#CCO/N=C1\CN2CCC1C2 (stereo not given) | 16.6 µM | 69.3 µM |  |  | 80.7 |  |  |  |  |  |  |  |  |  | 
4 | C[N+](C)(C)CCOC(N)=O |  |  |  |  |  |  |  |  | 1.4 µM | 0.27 µM | 0.1 µM | 6.3% | 100% | 2.7 µM | 
5 | C(#Cc1cccs1)CO/N=C1\CN2CCC1C2 (stereo not given) | 1.62 µM | 8.9 µM |  | 86% | 173 |  | 2.33 µM | 0.0135 µM |  |  |  |  |  |  | 
6 | C#CCO/N=C1\CN2CCC1C2 (stereo not given) | 4.89 µM | 6.03 µM | 42% | 95% | 1240 |  | 4.35 µM | 0.0035 µM |  |  |  |  |  |  | 
7 | Fc1ccc(C#CCO/N=C2\CN3CCC2C3)cc1 (stereo not given) | 5.46 µM | 27.2 µM | 13% | 57% | 204 | 10% |  |  |  |  |  |  |  |  | 
8 | C#C/C=C/CO/N=C1\CN2CCC1C2 (stereo not given) | 0.216 µM | 0.519 µM |  |  | 398 |  | 13.8 µM | 0.0347 µM |  |  |  |  |  |  | 
9 | C#C/C(C)=C/CO/N=C1\CN2CCC1C2 (stereo not given) | 2.59 µM | 6.01 µM |  |  | 480 |  | 2.06 µM | 0.00429 µM |  |  |  |  |  |  | 
10 | Clc1ccc(C#CCO/N=C2\CN3CCC2C3)cc1 (stereo not given) | 4.01 µM | 24.7 µM | 0% | 48% | 119 |  |  |  |  |  |  |  |  |  | 
11 | COc1ccc(C#CCO/N=C2\CN3CCC2C3)cc1 (stereo not given) | 10.6 µM | 84.4 µM |  | 89% | 119 | 2% |  |  |  |  |  |  |  |  | 3%
